In one assay the target is F. tularensis GyrB (Francisella tularensis subsp. tularensis, UniProt Q5NHE7). In words: biochemical. It counts as binding.
Assay [1] concerns the target T1, E. coli gyrase A2B2 heterotetramer (Escherichia coli, UniProt P0AES6).
T1 construct: purchased Topogen
The experiment in a line: Gyrase activity assay (supercoiling of relaxed plasmid DNA). It counts as biochemical. Conditions: 50 μM compound, 0.5 μg relaxed DNA, 1 hour at 37° C., agarose gel.

Consider 4 compounds from patent US8497361B2, “Topoisomerase binding probe and method of use” (priority 2010, dated 2013).

SMILES strings stand for the structures.

F. tularensis GyrB, sequence (Q5NHE7 1-805): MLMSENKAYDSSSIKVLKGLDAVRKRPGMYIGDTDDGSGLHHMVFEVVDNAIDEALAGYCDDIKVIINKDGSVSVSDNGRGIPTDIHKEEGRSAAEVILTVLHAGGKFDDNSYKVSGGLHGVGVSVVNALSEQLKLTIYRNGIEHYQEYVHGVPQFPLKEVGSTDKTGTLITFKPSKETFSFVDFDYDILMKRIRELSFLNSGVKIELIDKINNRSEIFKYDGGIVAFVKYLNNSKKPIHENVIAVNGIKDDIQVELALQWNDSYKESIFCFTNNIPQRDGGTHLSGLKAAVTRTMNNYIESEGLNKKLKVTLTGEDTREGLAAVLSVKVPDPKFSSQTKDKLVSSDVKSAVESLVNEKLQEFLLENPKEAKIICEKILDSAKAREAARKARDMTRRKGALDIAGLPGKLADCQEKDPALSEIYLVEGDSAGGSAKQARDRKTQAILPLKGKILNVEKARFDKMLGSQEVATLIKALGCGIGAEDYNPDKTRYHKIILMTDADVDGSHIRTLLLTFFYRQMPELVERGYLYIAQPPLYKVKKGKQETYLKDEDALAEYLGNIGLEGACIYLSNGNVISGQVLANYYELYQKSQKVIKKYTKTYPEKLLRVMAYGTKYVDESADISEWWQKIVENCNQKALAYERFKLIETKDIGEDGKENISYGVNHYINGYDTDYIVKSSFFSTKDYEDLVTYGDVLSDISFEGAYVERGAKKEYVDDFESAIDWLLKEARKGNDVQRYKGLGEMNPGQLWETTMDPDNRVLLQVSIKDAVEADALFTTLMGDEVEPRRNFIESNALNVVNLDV

The term Ki denotes the dissociation constant of the complex between target and ligand, obtained from inhibition or displacement. Read a low Ki as higher affinity. At F. tularensis GyrB, `COc1cccc2c1C(=O)c1c(O)c3c(c(O)c1C2=O)C[C@@](O)(C(C)=O)C[C@@H]3O[C@H]1C[C@H](N)[C@H](O)[C@H](C)O1` [daunorubicin] came in with a Ki of 444 nM. Besides, in assay [1], the “inhibition of supercoiling of relaxed DNA” value (“inhibition” below) was “less clear”.
On to `COc1cccc2c1C(=O)c1c(O)c3c(c(O)c1C2=O)C[C@@](O)(C(=O)CO)C[C@@H]3O[C@H]1C[C@H](N)[C@H](O)[C@H](C)O1` [doxorubicin], for which the Ki at F. tularensis GyrB came to 94 nM. In addition, the “inhibition” value in assay [1] was “inhibit supercoiling to the level of the no gyrase control”.
`COc1cccc2c1C(=O)c1c(O)c3c(c(O)c1C2=O)C[C@@](O)(C(=O)CO)C[C@@H]3O[C@H]1C[C@H](N)[C@@H](O)[C@H](C)O1` [epirubicin] returned a Ki at F. tularensis GyrB of 386 nM. Also, the “inhibition” value in assay [1] is “inhibit supercoiling to the level of the no gyrase control”.
For the compound `CC(=O)[C@]1(O)Cc2c(O)c3c(c(O)c2[C@@H](O[C@H]2C[C@H](N)[C@H](O)[C@H](C)O2)C1)C(=O)c1ccccc1C3=O` [idarubicin], the Ki on F. tularensis GyrB is 480 nM. For the same compound, the “inhibition” value in assay [1] is listed as “less clear”.
